These compounds were tested against binding of human von Willebrand factor to europium (Eu)-chelate-labeled chimeric GPIb-Fc protein (Homo sapiens, UniProt P04275+P07359) (assay: Von Willebrand Factor-GPIb Binding Assay (Eu based, botrocetin-induced)). Conditions: botrocetin-induced binding of Eu-chelate-labeled chimeric GPIb-Fc to immobilized human vWF; IC50 values as specified in the examples.
Procedure: Activity of compounds of the formula I was shown by an Eu based binding assay in which the binding of human von Willebrand factor to an europium (Eu)-chelate-labeled chimeric GPIb-Fc protein was induced by botrocetin. The preparation of the Eu-chelate-labeled chimeric GPIb-Fc protein is described in detail in a patent application (Fukuchi et al., EP1074564).
A TBS (Tris buffered saline, 20 mM Tris-HCl (pH 7.4) and 0.15 M NaCl) (50 microl) containing human von Willebrand factor (2.5 microg/ml) was added to each well of 1 96-well plate, and the von Willebrand factor was immobilized as a solid phase overnight at 4 dec. Each well was washed once with TBS (150 microl) and blocked with TBS containing 5% BSA (bovine serum albumin) for about 3 hours. Each well of the plate was washed twice with TBS (150 microl), and then added with 25 microl of an assay buffer (Assay Buffer, 1244-106, produced by Wallac) with the compounds, further added with the assay buffer (25 microl) containing the europium (Eu)-chelate-labeled chimeric GPIb-Fc protein (100 ng/ml), labeled with Eu-N1-ITC (Eu-chelate of N^1-(p-isothiocyanatebenzyl)-diethlenetriamine-N^1,N^2,N^3,N^3-tetraacetic acid, 1244-302, produced by Wallac) and botrocetin (500 ng/ml), and left stand at room temperature for 2 hours. The preparation of the Eu-chelate-labeled chimeric GPIb-Fc protein is described in detail in a patent application (Fukuchi et al., EP1074564). Each well of the plate was washed 5 times with TBS (150 microl) containing 0.05% Tween-20, then added with 100 microl of a fluorescence enhancement buffer (Enhancement Solution, 1244-104, produced by Wallac), and shaken for 1 minute. Then, the amount of europium (Eu) was measured by using a 1420 ARVO multi-label counter (produced by Wallac, measurements time: 1 second).

Sequence of binding of human von Willebrand factor to europium (Eu)-chelate-labeled chimeric GPIb-Fc protein (P04275 764-2813 limits assumed, change not shown): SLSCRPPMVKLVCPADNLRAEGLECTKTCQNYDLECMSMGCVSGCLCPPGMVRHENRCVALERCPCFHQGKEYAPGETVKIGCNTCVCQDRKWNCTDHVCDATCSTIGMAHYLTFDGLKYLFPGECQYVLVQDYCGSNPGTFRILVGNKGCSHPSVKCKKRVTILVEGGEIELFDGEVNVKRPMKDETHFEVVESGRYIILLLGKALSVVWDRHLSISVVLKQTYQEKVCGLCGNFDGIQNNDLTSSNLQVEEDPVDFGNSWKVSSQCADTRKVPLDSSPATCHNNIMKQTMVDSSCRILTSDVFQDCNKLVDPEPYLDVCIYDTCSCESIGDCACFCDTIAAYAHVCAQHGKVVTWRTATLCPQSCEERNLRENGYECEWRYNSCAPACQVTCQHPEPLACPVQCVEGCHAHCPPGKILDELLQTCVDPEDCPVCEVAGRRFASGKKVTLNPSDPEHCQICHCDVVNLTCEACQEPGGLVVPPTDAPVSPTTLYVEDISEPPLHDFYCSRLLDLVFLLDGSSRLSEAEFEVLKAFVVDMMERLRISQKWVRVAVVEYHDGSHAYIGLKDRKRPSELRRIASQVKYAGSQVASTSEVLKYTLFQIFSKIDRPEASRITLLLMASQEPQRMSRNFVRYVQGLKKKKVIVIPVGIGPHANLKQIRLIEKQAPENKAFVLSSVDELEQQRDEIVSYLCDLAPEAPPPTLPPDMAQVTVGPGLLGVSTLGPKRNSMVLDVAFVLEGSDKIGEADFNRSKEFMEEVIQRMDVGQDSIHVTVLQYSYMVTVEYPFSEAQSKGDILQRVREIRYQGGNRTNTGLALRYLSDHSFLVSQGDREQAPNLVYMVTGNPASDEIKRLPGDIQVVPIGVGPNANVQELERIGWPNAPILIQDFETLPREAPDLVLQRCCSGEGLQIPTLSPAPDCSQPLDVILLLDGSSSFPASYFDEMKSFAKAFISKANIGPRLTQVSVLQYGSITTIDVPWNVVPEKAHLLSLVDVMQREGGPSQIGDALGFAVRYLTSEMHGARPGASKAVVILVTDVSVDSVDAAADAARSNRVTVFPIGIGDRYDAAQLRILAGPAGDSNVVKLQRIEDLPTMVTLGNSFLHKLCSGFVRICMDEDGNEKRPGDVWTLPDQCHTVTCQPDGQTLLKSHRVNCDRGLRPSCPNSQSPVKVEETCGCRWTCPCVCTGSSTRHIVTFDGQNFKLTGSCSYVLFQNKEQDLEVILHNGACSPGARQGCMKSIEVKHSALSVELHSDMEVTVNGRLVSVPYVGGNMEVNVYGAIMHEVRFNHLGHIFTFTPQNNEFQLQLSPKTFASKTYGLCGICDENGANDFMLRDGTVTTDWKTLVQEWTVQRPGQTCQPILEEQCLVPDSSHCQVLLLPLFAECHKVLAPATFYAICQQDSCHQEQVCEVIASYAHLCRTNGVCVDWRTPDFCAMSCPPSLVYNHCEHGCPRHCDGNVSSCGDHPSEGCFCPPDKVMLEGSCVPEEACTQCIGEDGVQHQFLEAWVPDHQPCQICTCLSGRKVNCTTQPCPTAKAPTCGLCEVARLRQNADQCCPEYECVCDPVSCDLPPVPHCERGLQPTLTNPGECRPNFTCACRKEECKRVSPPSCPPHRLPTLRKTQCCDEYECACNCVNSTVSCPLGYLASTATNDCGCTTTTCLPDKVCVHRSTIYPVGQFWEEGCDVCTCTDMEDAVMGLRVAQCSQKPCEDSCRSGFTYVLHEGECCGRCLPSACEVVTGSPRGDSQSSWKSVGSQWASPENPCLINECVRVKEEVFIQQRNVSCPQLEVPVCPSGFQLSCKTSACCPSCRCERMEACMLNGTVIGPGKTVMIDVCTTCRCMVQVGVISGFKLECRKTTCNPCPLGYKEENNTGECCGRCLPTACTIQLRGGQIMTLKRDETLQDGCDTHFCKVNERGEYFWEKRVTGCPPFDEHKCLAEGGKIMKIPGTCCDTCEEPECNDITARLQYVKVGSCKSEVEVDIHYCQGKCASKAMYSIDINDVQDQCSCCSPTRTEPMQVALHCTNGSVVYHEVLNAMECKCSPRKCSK
Sequence of binding of human von Willebrand factor to europium (Eu)-chelate-labeled chimeric GPIb-Fc protein (P07359 17-335 limits assumed, change not shown): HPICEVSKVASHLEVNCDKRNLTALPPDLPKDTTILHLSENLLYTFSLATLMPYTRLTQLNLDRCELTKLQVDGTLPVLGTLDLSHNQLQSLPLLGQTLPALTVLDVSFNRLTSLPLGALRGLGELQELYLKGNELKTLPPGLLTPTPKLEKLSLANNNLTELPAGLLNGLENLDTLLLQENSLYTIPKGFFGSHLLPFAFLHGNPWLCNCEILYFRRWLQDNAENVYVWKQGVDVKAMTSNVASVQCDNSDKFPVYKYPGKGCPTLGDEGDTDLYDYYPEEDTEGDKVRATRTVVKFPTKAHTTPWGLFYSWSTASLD

| IC50 [µM] | SMILES |
| --- | --- |
| 9.18 | COc1cc(NC(=O)c2ccc3[nH]c(C)nc3c2)ccc1NC(=O)c1ccc2nc(C)cc(N)c2c1 [Example 35, 4-Amino-N-(2-methoxy-4-{[(2-methyl-1H-benzimidazol-5-yl)carbonyl]amino}phenyl)-2-methyl-6-quinolinecarboxamide] |
| 2.56 | Cc1cc(N)c2cc(C(=O)Nc3ccc(CNc4ccc5cn[nH]c5c4)cc3)ccc2n1 [Example 37, 4-Amino-N-{4-[(1H-indazol-6-ylamino)methyl]phenyl}-2-methyl-6-quinolinecarboxamide] |
| 33.3 | Cc1cc(N)c2cc(C(=O)NC3CCC(NC(=O)c4ccc5nc(N)sc5c4)CC3)ccc2n1 (centres unmarked) [Example 38, 4-Amino-N-(4-{[(2-amino-1,3-benzothiazol-6-yl)carbonyl]amino}cyclohexyl)-2-methyl-6-quinolinecarboxamide] |
| 28.5 | Cc1cc(N)c2cc(C(=O)NC3CCC(NC(=O)c4ccc5nc(N)ccc5c4)CC3)ccc2n1 (centres unmarked) [Example 39, 4-Amino-N-(4-{[(2-amino-6-quinolinyl)carbonyl]amino}cyclohexyl)-2-methyl-6-quinolinecarboxamide] |

| SMILES | IC50 [µM] |
| --- | --- |
| Cc1cc(N)c2cc(C(=O)Nc3ccc(NC(=O)c4ccc5nc(C)cc(N)c5c4)cc3)ccc2n1 [Example 36] | 1.57 |
